This is an account of results in US7579488B2 (Eli Lilly and Company, priority 2003, dated 2009).

Where two headings read alike, the source gives them in different places.

The subject of one data set is female DBF mice. The data set can be described thus: Mouse hypercalcemia assay. To be noted: oral gavage for 6 days.
The test system of a further data set is IL-10. The data set can be described thus: IL-10 induction assay. It counts as cell-based. To be noted: Homo sapiens, PBMC. The source says:
6. The IL-10 Induction Assay
This is an in vitro efficacy assay for psoriasis, abscess and adhesion. Psoriasis involves both keratinocytes and immune cells. IL-10 is a unique cytokine because it is anti-inflammatory and immunosuppressive. This assay tells us whether a VDRM is able to function as an agonist in PBMCs ([…]) or not.
(6) Materials and Method for Human IL-10 Induction Assay:
Isolation of Peripheral Blood Mononuclear Cells (PBMCs):
B. Prepare sterile tubes with ficol.
C. Add diluted blood to tubes.
E. Discard the top layer and collect the cells from middle layer.
F. Divide all cells into four tubes and add media.
H. Aspirate off media and resuspend.
J. Centrifuge. at 1200 rpm for 10 minutes.
M. Dissolve PHA in water.
N. Plate TPA/PHA treated PBMCs in well plates.
Sample Collection and Assay:
S. Remove all the cells by centrifugation and assay the supernatant for IL-10 by immunoassay.
1) T. Perform […] using anti-human IL-10 antibody coated beads, as described by the manufacturer (Linco Research Inc., St. Charles, Mo.).

Another data set deals with rat osteocalcin promoter. The data set can be described thus: OCN (osteocalcin) promoter assay. Type of data set: cell-based. The note with it: RG-15 (ROS 17/2.8) cells. As for the experimental part: 3. The OCN (Osteocalcin) Promoter Assay
The OCN Promoter Assay is an indicator and marker for osteoporosis. […] Preferred assay results are less than 50 nM.
(3) Materials and Method for The OCN Promoter Assay:
The activation of osteocalcin by VDR ligands was evaluated in a rat osteoblast-like cell line RG-15 (ROS 17/2.8) stably expressing rat osteocalcin promoter fused with luciferase reporter gene. […] Confluent RG-15 cells maintained in DMEM/F-12 medium (3:1) containing 5% FBS, 300 μg/ml G418 and at 37° C. under 5% CO2/95% air atmosphere were trypsinized (0.25% trypsin) and plated into white opaque 96-well cell culture plates (25000 cells/well). After 24 hr, cells (in DMEM/F-12 medium+2% FBS) were treated with various concentrations of compounds, dissolved in DMSO. The final DMSO concentration remained at 0.01% (v/v). After 48 hr treatment, the medium was removed, cells were lysed with 50 μl of lysis buffer (From Luciferase reporter assay system, Roche Diagnostics, Indianapolis, Ind.) and assayed for luciferase activity using the Luciferase Reporter Gene Assay kit from Boehringer Mannheim as per manufacturer's specifications.

The next data set concerns KERtr cells. The data set can be described thus: Keratinocyte proliferation assay. It counts as cell-based. To be noted: Homo sapiens, read-out: Kera. Prolif. IC50. As for the experimental part: 5. The Keratinocyte Proliferation Assay
This Assay is indicative for the treatment of psoriasis.
(5) The Keratinocyte Proliferation Assay:
KERtr cells (Human skin keratinocyte transformed with a retrovirus vector, obtained from ATCC) were plated in 96-well flat-bottomed plates (3000 cells/well) in 100 μl keratinocyte serum free medium supplemented with bovine pituitary extract in the absence of EGF (Life Technologies, Rockville, Md.) and incubated at 37° C. for two days. The cells were treated with various concentrations of VDR ligands (ten-fold serial dilution from 10,000 nM to 0.1 nM in triplicate), dissolved in 100 μl keratinocyte serum free medium supplemented with bovine pituitary extract in the absence of EGF and incubated at 37° C. for 72 hr. […] Potency values (IC50) values were determined as the concentration (nM) of compound that elicited a half-maximal response.

The target of the next data set is T1, VDR (Homo sapiens, UniProt P11473).
T1 construct: the receptor expression vector pGal4-VDR-LBD (10 ng); expressed in transfected cells; host or cells: Caco-2 cells
T1 sequence (P11473 127-423 limits assumed): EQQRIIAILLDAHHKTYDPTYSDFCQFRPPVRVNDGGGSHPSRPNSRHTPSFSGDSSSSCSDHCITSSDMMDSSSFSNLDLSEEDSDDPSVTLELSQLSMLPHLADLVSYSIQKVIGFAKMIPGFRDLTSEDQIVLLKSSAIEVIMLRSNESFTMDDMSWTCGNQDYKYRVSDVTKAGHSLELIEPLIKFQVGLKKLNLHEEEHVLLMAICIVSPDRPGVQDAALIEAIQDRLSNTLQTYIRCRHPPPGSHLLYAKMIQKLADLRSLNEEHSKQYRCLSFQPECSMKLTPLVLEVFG
The data set is described as follows: VDR CTF (Caco-2 cell co-transfection) assay. Type of data set: cell-based. To be noted: Caco-2 cells, pGal4-VDR-LBD co-transfection, luciferase; several values separated by /. As for the experimental part: 2. The Caco-2 Cell Co-Transfection Assay:
The Caco-2 cell assay is an indicator for the undesirable condition of hypercalcemia. This co-transfection assay is a surrogate assay for in vivo calcemic activity of VDR ligands. […] Preferred assay results are greater than 1000 nM.
(2) Materials and Method for the Caco-2 Cell Assay:
Caco-2 cells, grown in phenol red free, DMEM (Invitrogen, Carlsbad, Calif.) containing 10% charcoal-stripped FCS (Hyclone, Logan, Utah), were transfected with Fugene 6 reagent (Roche Diagnostics, Indianapolis, Ind.). Cells (5000/well) were plated 18 h before transfection in a 96 well plate. The Cells were transfected with Gal4-responsive reporter pFRLuc (150 ng, Stratagene, La Jolla Calif.) and the receptor expression vector pGal4-VDR-LBD (10 ng), along with Fugene 6 reagent (0.2 μl/well). The DNA-Fugene complex was formed by incubating the mixture for 30 min at room temperature. The cells were transfected in triplicate for 5 h, and treated with various concentrations of VDR ligands (form 0.01 nM to 10,000 nM concentration range) 18 h post-transfection. The luciferase activity was quantified using Steady-Glo reagent kit (Promega, Madison, Wis.) as per manufacturer's specifications.

For the next data set, the target named is T2, RXR-VDR heterodimer (Homo sapiens, UniProt P11473).
T2 construct: Add the Gal4-RXR-DEF and VP16-VDR-LBD; expressed in transfected cells; host or cells: SaOS-2 cells
T2 sequence (P11473 127-423 limits assumed): T1 sequence (P11473 127-423 limits assumed)
T2 sequence (P19793 201-462 partner limits assumed): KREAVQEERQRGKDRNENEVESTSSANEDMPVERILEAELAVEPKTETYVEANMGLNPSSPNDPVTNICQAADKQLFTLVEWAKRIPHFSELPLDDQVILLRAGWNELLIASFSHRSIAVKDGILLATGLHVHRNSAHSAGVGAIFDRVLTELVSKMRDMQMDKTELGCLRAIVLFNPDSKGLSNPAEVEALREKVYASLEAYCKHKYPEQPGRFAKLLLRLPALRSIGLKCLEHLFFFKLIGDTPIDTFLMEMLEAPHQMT
The data set can be described thus: RXR-VDR heterodimerization assay (SaOS-2 cells). Type of data set: cell-based. The note with it: Gal4-RXR-DEF/VP16-VDR-LBD luciferase reporter, several values in a cell separated by /. As for the experimental part:
1. The RXR-VDR Heterodimer Assay:
This assay provides the VDR activity of a test compound.
(1) Materials and Method for RXR-VDR Heterodimerization Assay:
Luciferase Assay Reagent: • Use Steady-Glo Luciferase Reagent from Promega (Cat #E2550) Consists of: a. E2533 Assay Substrate, lyopholized product and b. E2543 Assay Buffer. • Thaw at room temperature • Store Cell Harvesting Aspirate media from culture flask, rinse cells with HBSS and aspirate. Add trypsin and incubate. When cells appear detached, resuspend cells in growth media. Transfer into a new flask with fresh growth media for passaging the cells. Plate well plates and two extra plates A. Cell Count Mix the cell suspension using pipette Use Hematocytometer to count the cells Load cell suspension onto the hemocytometer chamber Count cells. […] In sterile flask add cell suspension to plating media. Mix. Add cells/well. Place the cells in the incubator. Cells should be about 75% confluent prior to transfection. DAY 2: Transfection Step 1: DNA and Media Add plain DMEM media to tubes for mixing the DNA Add the Reporter gene pFR-LUC Add the Gal4-RXR-DEF and VP16-VDR-LBD Step 2: FuGENE and Media Prepare plain DMEM media in a ubes for mixing FuGENE Add FuGENE 6 Transfection Reagent Incubate Step 3: FuGENE, DNA and Media Complex Add FuGENE Media complex from step 2 to DNA Media complex from step 1 Incubate Step 4: FuGENE, DNA and Media Complex to-well plate Add FuGENE-DNA-Media complex from step 3 to each plate Incubate. […] Day 4: Luciferase Assay Read the plates after drug treatment Remove part of media from all the wells and leave remainder Add Steady-Glo Luciferase Reagent mixture/wells Incubate Count each well using a Luminescence counter, Top Count NXT by Packard
Set a delay between plates to reduce the background.
A general note: A reporter such as luciferase makes a cellular process visible.

[1] abbreviates: comparison compounds, human PBMCs.
[2] abbreviates: Rattus norvegicus, comparison compounds.
The mark [3] stands for this setting: serum ionized calcium 6 hours after last dosing.
[4] abbreviates: TPA/PHA stimulated human PBMCs, IL-10 in supernatant by immunoassay, several values separated by /.
Where [5] appears, read: Rattus norvegicus, 48 h, 48 hr treatment, luciferase, several values separated by /.
Where [6] appears, read: 72 h, BrdU incorporation, several values separated by /.

Text for female DBF mice: The Mouse Hypercalcemia Assay
The Mouse Hypercalcemia Assay is a six day hypercalcemia test for toxicity and selectivity.
(4) Materials and Method for the Mouse Hypercalcemia Assay:
Weanling, virus-antibody-free, five to six weeks old female DBF mice (Harlan, Indianapolis, Ind.) are used for all the studies. Animals are allowed to acclimate to local vivarium conditions for 2 days. […] The animals then are divided into groups with 4-5 mice per group. Different doses of test compounds prepared in 10% Ethanol and 90% sesame oil are administered to mice orally via gavage for 6 days. 1α-25(OH)2D3 0.5 μg/kg/d was also given to one group of mice as the positive control. […] Raw data of group differences is assessed by analysis of variance (ANOVA) using Fisher's protected least significant difference (PLSD) where the significance level was P<0.05.

As to `CCC(CC)(c1ccc(OCC(O)CO)c(C)c1)c1ccc(OCC(O)C(C)(C)C)c(C)c1` (stereo not shown) [BB, 3-(4-{1-Ethyl-1-[4-(2-hydroxy-3,3-dimethyl-butoxy)-3-methyl-phenyl]-propyl}-2-methyl-phenoxy)-propane-1,2-diol, reference compound], the “Mouse Hypercal” value with female DBF mice (comparison compounds) was 20 µg/kg/day. Also, the IC50 – broadly, the point on the concentration scale where inhibition reaches its midpoint – in the data set on IL-10 (setting [1]) was determined as 28 nM; in the data set on KERtr cells (comparison compounds), 10 nM. The EC50 (in general, the concentration giving half of the maximal effect) with rat osteocalcin promoter (setting [2]) is 8.24 nM.

Take `CCC(CC)(c1ccc(OCC(=O)C(C)(C)C)c(C)c1)c1cc2cc(C(=O)NCC(=O)O)ccc2o1` [Ex 7, [(2-{1-[4-(3,3-Dimethyl-2-oxo-butoxy)-3-methyl-phenyl]-1-ethylpropyl}-benzofuran-5-carbonyl)-amino]-acetic acid]: the EC50 at VDR was 412 nM; in the data set on rat osteocalcin promoter (setting [5]), 0.4 nM. The “Mouse Hypercal” value in the data set on female DBF mice (setting [3]) is >300 µg/kg/day. The values for the IC50 in the data set with IL-10 (setting [4]) and in the data set on KERtr cells (setting [6]) were 24 nM and 5 nM, respectively.

Turning to `CCC(CC)(c1ccc(OCC(=O)C(C)(C)C)c(C(C)C)c1)c1cc2cc(C(=O)O)ccc2o1` [Ex 17], at VDR, the concentration for a half-maximal effect (EC50) is 589 nM. Further, the IC50 with IL-10 (setting [4]) turned out to be 95 nM; in the data set on KERtr cells (setting [6]), 13 nM.

For `CCC(CC)(c1ccc(OCC(=O)C(C)(C)C)c(C)c1)c1cc2ccc(C(=O)O)cc2o1` [Ex 18, 2-{1-[4-(3,3-dimethyl-2-oxo-butoxy)-3-methyl-phenyl]-1-ethyl-propyl}-benzofuran-6-carboxylic acid], the EC50 on VDR came out at 472 nM; with rat osteocalcin promoter (setting [5]), 2 nM. In addition, the “Mouse Hypercal” value in the data set with female DBF mice (setting [3]) is >300 µg/kg/day. The half-maximal inhibitory concentration (IC50) in the data set with KERtr cells (setting [6]) stood at 25 nM.

With `CCC(CC)(c1ccc(OCC(O)C(C)(C)C)c(C)c1)c1cc2ccc(C(=O)O)cc2o1` (stereo not shown) [Ex 19, 2-{1-Ethyl-1-[4-(2-hydroxy-3,3-dimethyl-butoxy)-3-methyl-phenyl]-propyl}-benzofuran-6-carboxylic acid], the EC50 on VDR came out at 620 nM; in the data set with rat osteocalcin promoter (48 hr treatment, luciferase, several values separated by /), 0.9 nM; with rat osteocalcin promoter (setting [5]), 1.4 nM. Also, the IC50 with IL-10 (setting [4]) is 34 nM; in the data set on KERtr cells (setting [6]), 8 nM.

As for `CCC(CC)(c1ccc(OCC(=O)C(C)(C)C)c(C)c1)c1ccc2oc(C(=O)O)cc2c1` [Ex 30, 5-{1-[4-(3,3-dimethyl-2-oxo-butoxy)-3-methyl-phenyl]-1-ethyl-propyl}-benzofuran-2-carboxylic acid], the results for the EC50 at VDR and in the data set with rat osteocalcin promoter (setting [5]) were 364 nM and 0.3 nM, respectively. Besides, the “Mouse Hypercal” value with female DBF mice (setting [3]) is >1000 µg/kg/day. The IC50 with IL-10 (setting [4]) was found to be 25 nM; with KERtr cells (setting [6]), 9 nM.

On to `CCC(CC)(c1ccc(OCC(O)C(C)(C)C)c(C)c1)c1ccc2oc(C(=O)O)cc2c1` (stereo not shown) [Ex 31, 5-{1-ethyl-1-[4-(2-hydroxy-3,3-dimethyl-butoxy)-3-methyl-phenyl]-propyl}-benzofuran-2-carboxylic acid], for which the EC50 on RXR-VDR heterodimer is 12 nM; on VDR, 279 nM; in the data set on rat osteocalcin promoter (setting [5]), 0.5 nM. Also, the results for the IC50 with IL-10 (setting [4]) and in the data set with KERtr cells (setting [6]) were 5.4 nM and 1 nM, respectively.

For `CCC(CC)(c1ccc(OCC(=O)C(C)(C)C)c(C)c1)c1ccc2oc(C(=O)NCC(=O)O)c(C)c2c1` [Ex 38, [(5-{1-[4-(3,3-dimethyl-2-oxo-butoxy)-3-methyl-phenyl]-1-ethyl-propyl}-3-methyl-benzofuran-2-carbonyl)-amino]-acetic acid], the EC50 was 314 nM at VDR and 0.5 nM with rat osteocalcin promoter (setting [5]). In addition, in the data set on female DBF mice (setting [3]), the “Mouse Hypercal” value is >30 µg/kg/day. Further, the IC50 in the data set on KERtr cells (setting [6]) was 22 nM.

`CCC(CC)(c1ccc(OCC(=O)C(C)(C)C)c(C)c1)c1cc2cc(C(=O)O)ccc2o1` [Ex. 2]: the concentration for a half-maximal effect (EC50) stood at 75 nM on RXR-VDR heterodimer, 677 nM on VDR and 3 nM in the data set with rat osteocalcin promoter (setting [5]). Also, the “Mouse Hypercal” value in the data set on female DBF mice (setting [3]) is >1000 µg/kg/day. The half-maximal inhibitory concentration (IC50) in the data set on KERtr cells (setting [6]) came out at 12 nM.

For `C=C1/C(=C\C=C2/CCC[C@]3(C)[C@@H]([C@H](C)/C=C/[C@@H](O)C4CC4)CC[C@@H]23)C[C@@H](O)C[C@@H]1O` [FF, calcipotriol, reference compound], the IC50 was found to be 0.5 nM in the data set on IL-10 (setting [1]) and 103 nM in the data set with KERtr cells (comparison compounds). In the data set with rat osteocalcin promoter (setting [2]), the concentration giving a half-maximal response (EC50) was determined as 0.28 nM.
